Literature values, collected in article PMC12623819 (Scientific Reports, 2025).

Key:
[1] = test system: cell surface-expressed nectin-4
[2] = test system: nectin-4-expressing cells; conditions: in vitro

In the case of “enfortumab vedotin: ADC comprising a human nectin-4 antibody conjugated to the microtubule-disrupting agent MMAE”, the “binding to cell surface-expressed nectin-4” value [1] is given as “high affinity” and the “induction of cell death” value [2] is given as “induce cell death in a dose-dependent manner”.
